Key:
HMG-CoA reductase = target: T1, HMG-CoA reductase (Homo sapiens, UniProt P04035); settings: in vivo, po
T1 sequence (P04035 1-888): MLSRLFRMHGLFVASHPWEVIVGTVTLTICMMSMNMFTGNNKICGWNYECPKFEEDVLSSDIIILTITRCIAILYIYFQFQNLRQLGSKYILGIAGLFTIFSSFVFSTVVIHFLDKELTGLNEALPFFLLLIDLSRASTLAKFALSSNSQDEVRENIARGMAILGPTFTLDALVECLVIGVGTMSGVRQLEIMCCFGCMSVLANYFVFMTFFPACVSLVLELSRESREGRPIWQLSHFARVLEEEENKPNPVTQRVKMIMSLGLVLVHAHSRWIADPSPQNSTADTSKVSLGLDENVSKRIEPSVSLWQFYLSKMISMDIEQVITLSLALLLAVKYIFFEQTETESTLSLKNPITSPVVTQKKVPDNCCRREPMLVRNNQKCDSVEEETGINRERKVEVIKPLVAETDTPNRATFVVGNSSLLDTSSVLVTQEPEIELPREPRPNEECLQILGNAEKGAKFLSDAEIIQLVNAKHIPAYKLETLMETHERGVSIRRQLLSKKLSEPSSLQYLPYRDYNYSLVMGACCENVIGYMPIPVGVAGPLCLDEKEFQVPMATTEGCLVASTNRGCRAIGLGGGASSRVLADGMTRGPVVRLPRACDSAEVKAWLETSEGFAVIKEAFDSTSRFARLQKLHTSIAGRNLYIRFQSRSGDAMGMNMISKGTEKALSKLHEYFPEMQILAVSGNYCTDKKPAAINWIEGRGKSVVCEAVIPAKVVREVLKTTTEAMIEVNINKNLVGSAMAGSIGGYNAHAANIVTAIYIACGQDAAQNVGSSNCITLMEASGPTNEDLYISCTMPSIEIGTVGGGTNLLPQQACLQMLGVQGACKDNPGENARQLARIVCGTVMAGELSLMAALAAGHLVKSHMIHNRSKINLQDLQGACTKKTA

[1] = set-up: species or system human; settings: in vivo

Cmax, Active Inhibitors (HMG-CoA reductase): 5.7 ± 3.0 ng eq/mL
apparent t1/2, effect of itraconazole [1]: essentially unchanged
t½, SV in plasma ([1]; male, human, po): 6.7 (1.7) hr
Structure (SMILES): CCC(C)(C)C(=O)O[C@H]1C[C@@H](C)C=C2C=C[C@H](C)[C@H](CC[C@@H](O)C[C@@H](O)CC(=O)O)[C@H]21 [SVA, dihydroxy open acid simvastatin]
